From ChEMBL document CHEMBL5143568, “Identification of novel xanthine oxidase inhibitors via virtual screening with enhanced characterization of molybdopterin binding groups” (Eur J Med Chem, 2022)

Molecular target: T1, Xanthine dehydrogenase/oxidase (Homo sapiens, UniProt P47989)
Test: Inhibition of xanthine oxidase (unknown origin) measured by spectrophotometric analysis

T1 sequence (P47989 whole entry): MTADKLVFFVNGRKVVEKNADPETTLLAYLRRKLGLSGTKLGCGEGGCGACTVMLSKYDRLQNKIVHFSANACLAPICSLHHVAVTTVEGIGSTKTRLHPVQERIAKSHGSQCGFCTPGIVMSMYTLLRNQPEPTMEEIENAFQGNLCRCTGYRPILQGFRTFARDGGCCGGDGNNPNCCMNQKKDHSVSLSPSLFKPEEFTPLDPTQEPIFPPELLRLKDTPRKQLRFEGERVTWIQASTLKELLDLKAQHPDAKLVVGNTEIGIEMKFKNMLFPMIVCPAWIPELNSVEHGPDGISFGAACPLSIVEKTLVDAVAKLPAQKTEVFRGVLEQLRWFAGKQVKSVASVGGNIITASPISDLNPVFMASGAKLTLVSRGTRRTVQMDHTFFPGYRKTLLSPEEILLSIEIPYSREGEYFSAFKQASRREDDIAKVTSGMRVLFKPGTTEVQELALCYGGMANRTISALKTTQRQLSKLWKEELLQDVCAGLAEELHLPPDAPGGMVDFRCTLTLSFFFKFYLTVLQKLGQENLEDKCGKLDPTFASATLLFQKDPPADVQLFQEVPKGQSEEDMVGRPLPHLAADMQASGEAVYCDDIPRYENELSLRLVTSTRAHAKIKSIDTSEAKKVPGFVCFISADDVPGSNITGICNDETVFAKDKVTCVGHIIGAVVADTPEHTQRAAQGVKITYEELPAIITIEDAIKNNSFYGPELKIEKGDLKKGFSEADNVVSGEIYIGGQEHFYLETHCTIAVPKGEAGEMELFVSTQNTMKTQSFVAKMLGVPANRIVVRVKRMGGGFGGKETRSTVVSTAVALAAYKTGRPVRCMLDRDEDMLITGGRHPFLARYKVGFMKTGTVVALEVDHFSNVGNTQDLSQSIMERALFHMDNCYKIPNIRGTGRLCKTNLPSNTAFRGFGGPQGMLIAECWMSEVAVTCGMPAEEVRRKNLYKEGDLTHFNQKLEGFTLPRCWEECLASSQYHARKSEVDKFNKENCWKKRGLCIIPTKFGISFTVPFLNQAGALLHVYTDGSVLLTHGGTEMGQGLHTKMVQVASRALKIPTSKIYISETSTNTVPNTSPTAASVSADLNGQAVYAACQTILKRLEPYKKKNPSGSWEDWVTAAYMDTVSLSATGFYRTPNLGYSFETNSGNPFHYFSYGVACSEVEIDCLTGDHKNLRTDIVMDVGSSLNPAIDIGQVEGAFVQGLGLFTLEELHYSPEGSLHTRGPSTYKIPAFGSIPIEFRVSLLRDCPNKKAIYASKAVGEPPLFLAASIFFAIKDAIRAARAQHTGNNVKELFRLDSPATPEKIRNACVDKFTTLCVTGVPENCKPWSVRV

Row | IC50 [nM] | SMILES
1 | 1020 | NC1=NC(=O)/C(=C/c2cccc(F)c2)S1
2 | 2.92 | Cc1nc(-c2ccc(OCC(C)C)c(C#N)c2)sc1C(=O)O [FEBUXOSTAT]

Molecular target: T1, Xanthine dehydrogenase/oxidase
Test: Inhibition of xanthine oxidase (unknown origin) at 10 uM measured by spectrophotometric analysis relative to control

Row | inhibition at 10 µM [%] | SMILES
3 | < 40 | O=C1N=C(S)S/C1=C/c1cc(Cl)ccc1O
4 | < 40 | Cc1ccc(Cl)c2c1NC(=O)/C2=C1/SC(N)=NC1=O
5 | 44.4 | COc1ccc(/C=C2\SC(=S)NC2=O)cc1OC
6 | < 40 | Cc1ccc(C(=O)Oc2cccc(/C=C3\SC(N)=NC3=O)c2)cc1

Continued, molecule first:

Row | SMILES | inhibition at 10 µM [%]
7 | Cc1ccc(C(=O)Oc2ccc(Br)cc2/C=C2\SC(N)=NC2=O)cc1 | < 40
8 | NC1=NC(=O)/C(=C/c2cc(Br)cc(Br)c2OCc2ccc(Cl)cc2Cl)S1 | < 40
9 | COc1ccc(/C=C2/SC(N)=NC2=O)cc1 | < 40
10 | NC1=NC(=O)/C(=C/c2cccc(F)c2)S1 | 91.5
11 | COc1cc(/C=C2/SC(S)=NC2=O)ccc1Cc1ccccc1Cl | < 40
12 | N=C1SCC(=O)N1c1ncc(OCc2ccc(Cl)cc2Cl)s1 | < 40

Molecular target: T1, Xanthine dehydrogenase/oxidase
Test: Inhibition of xanthine oxidase (unknown origin) at 0.1 uM measured by spectrophotometric analysis relative to control

Row | inhibition at 0.1 µM [%] | SMILES
13 | 102 | Cc1nc(-c2ccc(OCC(C)C)c(C#N)c2)sc1C(=O)O [FEBUXOSTAT]
